Values after ≈ are worked out from the molar mass of the structure shown.
Experiments:
Mammalian Ca^2+-ATPase = target: T1, Mammalian Ca^2+-ATPase (Oryctolagus cuniculus, UniProt P04191); experiment: Colorimetric ATPase assay, rabbit sarcoplasmic reticulum membranes (SERCA); type: biochemical
T1 construct: from tissue; host or cells: rabbit hind leg muscle, sarcoplasmic reticulum membranes (gift, Aarhus University)
Description: (§1) To investigate the H^+-ATPase inhibitory effect of the compounds we isolated plasma membranes containing H^+-ATPase from S. cerevisiae and C. albicans cells.[15] Plasma membranes isolated from pig kidney as well as endoplasmic reticulum membranes from rabbit hind leg muscle were used to counter-screen compounds for activity against mammalian Na^+,K^+-ATPase and Ca^2+-ATPase, respectively. Prior to their use, fungal plasma membrane batches were validated by determining the maximum ATP hydrolysis activity, the pH optimum of the ATPase activity, and the sensitivity to inhibition by orthovanadate. ATPase activity was determined by a colorimetric assay that measures the amount of inorganic phosphate liberated over time, as described in Kjellerup et al., 2017.[15] Table 2, Table 3, Table 4 list the IC50 values obtained by measuring the concentration dependence of the ATPase activity for the fifteen carbazole compounds with each of the four membrane preparations.
(§2) Pma1-containing plasma membranes were prepared from S. cerevisiae RS72 yeast cells that had been transformed with the full-length cDNA of the S. cerevisiae plasma membrane H^+-ATPase isoform PMA1 under control of the PMA1 promoter, using the same procedure as described in Kongstad et al., 2014^1. For the preparation of C. albicans membranes, a 100 ml overnight culture grown in YPD (10 g/L yeast extract (BD, Sparks, MD), 20 g/L Bacto peptone (BD), 20 g/L D-(+)-glucose) was transferred to 1 L YPD and grown for a further 7 h at RT with agitation (150 rpm), followed by cell harvesting and subsequent membrane preparation using the same procedure as described in Kongstad et al., 2014^1. […] Rabbit sarcoplasmic reticulum membranes containing Sarco/Endoplasmic Reticulum Ca^2+ ATPase (SERCA) were kindly provided by Dr. Claus E. Olesen and Dr. Jesper V. Møller, Aarhus University and prepared as described in Andersen et al., 1985^2. Pig kidney Na^+,K^+-ATPase was kindly provided by Dr. Natalya Fedosova, Aarhus University and prepared as described in Klodos et al., 2002^3.
(§3) The compound libraries were purchased from Enamine Ltd, Ukraine and Chembridge Corp, USA. ATPase activity was determined by measuring the amount of liberated phosphate from ATP hydrolysis. […] Reactions were initiated by the addition of Na-ATP to a final concentration of 2.5 mM (Pma1 and Na^+,K^+-ATPase) or 5 mM (SERCA), followed by 30 minutes incubation at 30 °C. The amount of liberated phosphate was determined colorimetrically after addition of STOP solution (mixture of L-ascorbic acid, ammonium heptamolybdate tetrahydrate, and HCl to give final concentrations of 65 mM, 2.2 mM, and 189 mM, respectively) with 5 minutes incubation at room temperature (RT) followed by addition of arsenite solution (mixture of NaAsO2, sodium citrate dihydrate, and acetic acid to give final concentrations of 3.1 mM, 28 mM, and 141 mM, respectively). Absorption was measured at 860 nm after an additional 30 minutes incubation at RT.

[1] = target: T2, Mammalian Na^+,K^+-ATPase (Sus scrofa, UniProt P05024); experiment: Colorimetric ATPase assay, pig kidney membranes; type: biochemical; details: for IC50: pH 7, n = 3, read-out: ATP hydrolysis IC50 Mammalian Na^+,K^+-ATPase
T2 construct: from tissue; host or cells: pig kidney plasma membranes (gift, Aarhus University; prepared per Klodos et al., 2002)
Description: as §1, §2, §3

Candida albicans SC5314 = experiment: Fungal growth inhibition MIC (MFC); type: cell-based; details: for MIC: Candida albicans SC5314, RPMI-1640; for MFC: Candida albicans SC5314, value in brackets
Description: (§4) We subsequently assessed the carbazole series for antifungal activity, as described in Kjellerup et al., 2017.[15] Table 2, Table 3, Table 4, Table 5 list the minimum inhibitory concentrations (MIC) and the minimum fungicidal concentrations (MFC) of the fifteen compounds tested against the yeasts Saccharomyces cerevisiae, Candida albicans, C. krusei, and two isolates of C. glabrata (a wild-type strain ATCC 90030 and a clinical azole-resistant isolate Cg003 with increased efflux pump expression[19]), and the molds Aspergillus fumigatus and A. flavus. MIC was defined as the lowest concentration inhibiting visual growth of the microorganism in RPMI-1640 media. […] However, in several cases antifungal activity against molds was minimal, Table 5.
(§5) Compound hits from the library screening were evaluated against baker yeast S. cerevisiae and C. albicans (ATCC 90028). The minimum inhibitory concentration (MIC) was defined as the lowest concentration inhibiting visual growth of the microorganism and this was determined in triplicate. Standard errors were typically less than 5%. MICs for synthesized compounds were determined on the following fungal isolates: Saccharomyces cerevisiae (ATCC 9763), Candida albicans (SC5314), Candida krusei (ATCC 6258), Candida glabrata (ATCC 90030), Aspergillus flavus (ATCC MYA-1005) and Aspergillus fumigatus (ATCC 13073), which were purchased from American Type Culture Collection, and C. glabrata strain Cg003, which was kindly provided by Julius Subik, Comenius University in Bratislava, Slovak Republic. Cg003 is a clinical isolate, characterized to be resistant to fluconazole and itraconazole due to overexpression of the multidrug resistance efflux pumps Cdr1p and Cdr2p^5. The fungal growth assay was performed as described in Kjellerup et al., 2017^6.

[2] = tested on: Candida glabrata ATCC 90030; experiment: Fungal growth inhibition MIC (MFC); type: cell-based; details: Nakaseomyces glabratus, ATCC90030, Candida glabrata ATCC 90030 (wild-type); for MIC: RPMI-1640; for MFC: value in brackets
Description: as §4, §5

Candida glabrata Cg003 = experiment: Fungal growth inhibition MIC (MFC); type: cell-based; details: Nakaseomyces glabratus, Candida glabrata Cg003 (clinical azole-resistant isolate); for MIC: RPMI-1640; for MFC: value in brackets
Description: as §4, §5

Candida krusei ATCC 6258 = experiment: Fungal growth inhibition MIC (MFC); type: cell-based; details: Pichia kudriavzevii, ATCC6258; for MIC: Candida krusei ATCC 6258, RPMI-1640; for MFC: Candida krusei ATCC 6258, value in brackets
Description: as §4, §5

T1 sequence (P04191 1-994 isoform P04191-2): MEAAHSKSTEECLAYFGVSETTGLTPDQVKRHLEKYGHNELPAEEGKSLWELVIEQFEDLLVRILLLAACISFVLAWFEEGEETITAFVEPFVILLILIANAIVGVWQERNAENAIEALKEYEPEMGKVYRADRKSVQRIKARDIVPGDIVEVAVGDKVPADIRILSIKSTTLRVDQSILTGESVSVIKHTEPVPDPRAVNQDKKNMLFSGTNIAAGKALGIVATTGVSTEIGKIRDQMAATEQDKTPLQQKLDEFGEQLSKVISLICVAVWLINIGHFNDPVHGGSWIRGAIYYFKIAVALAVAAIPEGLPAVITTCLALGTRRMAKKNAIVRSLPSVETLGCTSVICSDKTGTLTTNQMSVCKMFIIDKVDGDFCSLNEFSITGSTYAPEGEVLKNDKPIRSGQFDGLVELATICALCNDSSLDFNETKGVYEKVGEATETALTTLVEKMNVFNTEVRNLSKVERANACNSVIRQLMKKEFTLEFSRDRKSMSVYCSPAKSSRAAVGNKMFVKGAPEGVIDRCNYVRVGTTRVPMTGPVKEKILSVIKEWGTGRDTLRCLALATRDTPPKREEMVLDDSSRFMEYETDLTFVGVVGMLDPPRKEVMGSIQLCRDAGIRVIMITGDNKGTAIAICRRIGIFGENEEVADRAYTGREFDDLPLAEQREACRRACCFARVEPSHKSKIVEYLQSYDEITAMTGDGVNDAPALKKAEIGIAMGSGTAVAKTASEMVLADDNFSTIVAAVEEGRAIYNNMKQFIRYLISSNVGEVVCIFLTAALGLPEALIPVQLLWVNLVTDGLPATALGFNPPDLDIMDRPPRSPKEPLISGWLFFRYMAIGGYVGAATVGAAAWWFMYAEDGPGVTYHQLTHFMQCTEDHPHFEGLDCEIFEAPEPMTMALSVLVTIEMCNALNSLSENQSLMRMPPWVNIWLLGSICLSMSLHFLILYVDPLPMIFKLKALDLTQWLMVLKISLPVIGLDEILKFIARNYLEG

Compound | IC50 (Mammalian Ca^2+-ATPase) | IC50 [1] | MIC (Candida albicans SC5314) | MFC (Candida albicans SC5314) | MIC [2] | MFC [2] | MIC (Candida glabrata Cg003) | MFC (Candida glabrata Cg003) | MIC (Candida krusei ATCC 6258) | MFC (Candida krusei ATCC 6258) | selectivity among the four ATPases ([1]; lower IC50 value on Na^+,K^+-ATPase) | potency on the Ca^2+-ATPase versus the three other pumps (Mammalian Ca^2+-ATPase)
COc1ccc2c(c1)c1cc(OC)ccc1n2CC(O)CN1CCN(C)CC1 (stereo not drawn) [Compound 11, 1-(3,6-dimethoxy-9H-carbazol-9-yl)-3-(4-methylpiperazin-1-yl)propan-2-ol] | > 167 µM | > 167 µM | > 75 µM | > 75 µM | > 75 µM | > 75 µM | > 75 µM | > 75 µM | > 75 µM | > 75 µM | – | –
CN1CCN(CC(O)Cn2c3ccc(C#N)cc3c3cc(C#N)ccc32)CC1 (stereo not drawn) [Compound 12, 9-(2-hydroxy-3-(4-methylpiperazin-1-yl)propyl)-9H-carbazole-3,6-dicarbonitrile] | 92.7 ± 13.1 µM | 10.5 ± 1.4 µM | > 75 µM | > 75 µM | > 75 µM | > 75 µM | > 75 µM | > 75 µM | > 75 µM | > 75 µM | pronounced selectivity towards Na^+,K^+-ATPase | –
CN1CCN(CC(O)Cn2c3ccc(O)cc3c3cc(O)ccc32)CC1 (stereo not drawn) [Compound 13, 9-(2-hydroxy-3-(4-methylpiperazin-1-yl)propyl)-9H-carbazole-3,6-diol] | > 167 µM | > 167 µM | > 75 µM | > 75 µM | > 75 µM | > 75 µM | > 75 µM | > 75 µM | > 75 µM | > 75 µM | – | –
CN(C)CCCn1c2ccc(Cl)cc2c2cc(Cl)ccc21 [Compound 14, 3-(3,6-dichloro-9H-carbazol-9-yl)-N,N-dimethyl-propan-1-amine] | 13 ± 2.1 µM | 2.1 ± 0.5 µM | 24 µM (≈ 7.71 µg/mL) | 75 µM (≈ 24.1 µg/mL) | 24 µM (≈ 7.71 µg/mL) | 24 µM (≈ 7.71 µg/mL) | 24 µM (≈ 7.71 µg/mL) | 75 µM (≈ 24.1 µg/mL) | 13 µM (≈ 4.18 µg/mL) | 24 µM (≈ 7.71 µg/mL) | – | –
CN(C)CCCCn1c2ccc(Cl)cc2c2cc(Cl)ccc21 [Compound 15] | 17.5 ± 11.4 µM | 5.1 ± 0.8 µM | 24 µM (≈ 8.05 µg/mL) | 24 µM (≈ 8.05 µg/mL) | 7.5 µM (≈ 2.51 µg/mL) | 7.5 µM (≈ 2.51 µg/mL) | 7.5 µM (≈ 2.51 µg/mL) | 24 µM (≈ 8.05 µg/mL) | 7.5 µM (≈ 2.51 µg/mL) | 16 µM (≈ 5.36 µg/mL) | – | –
CN1CCN(CCCn2c3ccc(Cl)cc3c3cc(Cl)ccc32)CC1 [Compound 16, 3,6-dichloro-9-(3-(4-methylpiperazin-1-yl)propyl)-9H-carbazole] | 23.2 ± 6.4 µM | 2.5 ± 0.6 µM | 24 µM (≈ 9.03 µg/mL) | 24 µM (≈ 9.03 µg/mL) | 7.5 µM (≈ 2.82 µg/mL) | 7.5 µM (≈ 2.82 µg/mL) | 7.5 µM (≈ 2.82 µg/mL) | 7.5 µM (≈ 2.82 µg/mL) | 7.5 µM (≈ 2.82 µg/mL) | 7.5 µM (≈ 2.82 µg/mL) | – | –
Clc1ccc2c(c1)c1cc(Cl)ccc1n2CCCN1CCOCC1 [Compound 18, 4-(3-(3,6-dichloro-9H-carbazol-9-yl)propyl)morpholine] | 70.9 ± 8.4 µM | 7.7 ± 3.1 µM | > 75 µM | > 75 µM | > 75 µM | > 75 µM | > 75 µM | > 75 µM | > 75 µM | > 75 µM | – | much less potent on the Ca^2+-ATPase than the three other pumps

Reference: article PMC5609566, “Elucidation of antimicrobial activity and mechanism of action by N-substituted carbazole derivatives” (Bioorganic & Medicinal Chemistry Letters, 2017)
